“Also recorded” adds a separate entry of the source.
Columns and labels:
[1] = system: primary mouse lung fibroblasts; experiment: PDGF-induced fibroblast chemotaxis (specificity control); type: cell-based
Experimental: (§1) Lungs from unchallenged C57BL/6, LPA1^−/− or littermate wild type mice were digested for 45 minutes at 37° C. in DMEM with 0.14 U/ml Liberase Blenzyme 3 (Roche), and 60 μg/ml DNAse 1 (Sigma), passed through a 70 μm filter, centrifuged at 540×g at 4° C. and plated in tissue culture flasks in DMEM with 15% (vol/vol) fetal bovine serum (FBS, Sigma). Cells were passaged when subconfluent following harvest with trypsin-EDTA (Cellgro®). To ensure that cultures contained almost purely fibroblasts, cells were used for experiments at passage 3 or higher.
(§2) After being serum-starved in DMEM without FBS overnight, subconfluent primary lung fibroblasts were harvested with non-enzymatic Cell Dissociation Solution (Sigma) to avoid possible proteolysis of surface chemoattractant receptors by trypsin. Harvested cells, at 5.0×10^5 cells/ml in 50 μl of DMEM, were placed in the top of a 48-well modified Boyden microchemotaxis chamber (NeuroProbe). Duplicate 30 μl aliquots of either: i) 18:1 LPA (Avanti Polar Lipids) or PDGF-BB (R&D Systems) in DMEM with 0.1% fatty acid-free bovine serum albumin (Sigma); or ii) BAL, or BAL fractions, diluted 1:4 in DMEM, were placed in the bottom wells of the chamber and separated from the cells by a 8-μm-pore, polyvinylpyrrolidone-free polycarbonate filter (Osmonics) that had been coated with fibronectin (Sigma). The apparatus was incubated at 37° C. and 5% CO2 for 3 hours, and cells migrating across the filter and adhering to the bottom side of the filter were stained with a commercially modified Wright's stain (Hema 3 stain set, Fisher Diagnostics) and counted, after cells remaining on the top side of the filter had been scraped off. Data from these experiments is presented as chemotactic indices, i.e. the number of cells migrating in response to BAL divided by the number of cells migrating to media controls.

[2] = system: human fetal lung fibroblasts (HFL1 cells); experiment: Fibroblast chemotaxis induced by BAL samples from human IPF patients; type: cell-based; conditions: 1 μM Ki16425; FIG. 8d
Experimental: After being serum-starved in DMEM without FBS overnight, subconfluent primary lung fibroblasts were harvested with non-enzymatic Cell Dissociation Solution (Sigma) to avoid possible proteolysis of surface chemoattractant receptors by trypsin. Harvested cells, at 5.0×10^5 cells/ml in 50 μl of DMEM, were placed in the top of a 48-well modified Boyden microchemotaxis chamber (NeuroProbe). […] The apparatus was incubated at 37° C. and 5% CO2 for 3 hours, and cells migrating across the filter and adhering to the bottom side of the filter were stained with a commercially modified Wright's stain (Hema 3 stain set, Fisher Diagnostics) and counted, after cells remaining on the top side of the filter had been scraped off. […]
BAL samples were recovered from IPF patients and normal controls following instillation of sterile 0.9% saline by flexible fiberoptic bronchoscopy, performed both at the Instituto Nacional de Enfermedades Respiratorias and the Massachusetts General Hospital (MGH), as previously described. […] Cells growing at passage 3 or higher were analyzed as primary human BAL fibroblasts.

[3] = system: sphingosine 1-phosphate receptors; conditions: literature (Ohta et al. 2003); cited from earlier work
[4] = system: primary mouse lung fibroblasts; experiment: Fibroblast chemotaxis induced by BAL from mice on Day 5 post-bleomycin (modified Boyden chamber); type: cell-based
Experimental: Bronchoalveolar lavage (BAL) samples were obtained by lung lavage using two 0.5 ml aliquots of PBS. These samples were then provided for analysis of: i) chemoattractant activity, ii) LPA; iii) total protein; and iv) D-dimer concentrations. These BAL samples were centrifuged at 3000×g for 20 min at 4° C., and the supernatants transferred to siliconized low-binding eppendorf tubes (PGC Scientifics) for subsequent analysis.
as §1
as §2, with “Data from these experiments is presented as chemotactic indices, i.e. the number of cells migrating in response to BAL divided by the number of cells migrating to media controls.” left out

LPA1, LPA3, LPA2 = conditions: literature (Ohta et al. 2003; Heise et al. 2001); cited from earlier work
[5] = system: LPA-activated chloride channel; conditions: elevated levels; human lung fibroblasts; literature (Yin et al. 2005); cited from earlier work
[6] = system: primary mouse lung fibroblasts; experiment: LPA-induced fibroblast chemotaxis; type: cell-based; conditions: for effect of albumin on LPA-induced fibroblast chemotaxis: 0.1% fatty acid-free BSA, C57Bl/6 lung fibroblasts, FIG. 9b
Experimental: as §1, §2

For `Cc1noc(-c2ccc(CSCCC(=O)O)cc2)c1NC(=O)OC(C)c1ccccc1Cl` (stereo not drawn) [Ki16425], which “effect on PDGF-induced fibroblast chemotaxis” value ([1]; 1 μM Ki16425, 10^−8 or 10^−7 M PDGF, FIG. 5b) is on record?
Its value is “not affected; also recorded: similar; also recorded: did not affect”.

And the “effect on chemotaxis of HFL1 cells to BAL samples from IPF patients” value [2]?
The value was “reduced chemotaxis; also recorded: significantly inhibited”.

And the “effects on cellular responses mediated by sphingosine 1-phosphate receptors” value [3]?
Its value is “without appreciable effects”.

And the “effect on fibroblast chemotaxis induced by D5 post-bleomycin BAL” value ([4]; 1 μM Ki16425, C57BL fibroblasts, FIG. 5b)?
Its value is “significantly inhibited”.

And the “receptor subtype rank order of inhibition of LPA-induced responses” value (LPA1, LPA3, LPA2)?
Its value is “LPA1≧LPA3>>LPA2”.

With `CCCCCCCC/C=C\CCCCCCCC(=O)N[C@@H](COP(=O)(O)O)Cc1ccc(OCc2ccccc2)cc1` [VPC12249] as the compound, how does the “effect on PDGF-induced fibroblast chemotaxis” value ([1]; 100 μM VPC12249, PDGF 10^−9 M, FIG. 10) read?
Its value is “did not affect; also recorded: similar; also recorded: not affected”.

And the “effect on fibroblast chemotaxis induced by D5 post-bleomycin BAL” value ([4]; 100 μM VPC12249, C57BL/6 fibroblasts, FIG. 10)?
The value was “reduced chemotaxis; also recorded: significantly inhibited”.

And the “receptor subtype rank order of inhibition of LPA-induced responses” value (LPA1, LPA3, LPA2)?
Its value is “LPA1≧LPA3>>LPA2”.

For dioctyl-glycerol pyrophosphate, which “effect on activation of LPA-activated chloride channel” value [5] is on record?
The value was “blocked”.

What does the source list for “fatty acid-free BSA: fatty acid-free bovine serum albumin (Sigma)”?
effect of albumin on LPA-induced fibroblast chemotaxis [6]: potentiated; effect of albumin on LPA-induced fibroblast chemotaxis ([6]; listed as methanol extracted fatty acid-free albumin): significantly potentiated

Which “fibroblast chemotactic activity of LPA” value ([6]; LPA bound to albumin, FIG. 1h) does the source give for lysophosphatidic acid [LPA] here?
Its value is “chemotactic; also recorded: potent fibroblast chemoattractant”.

What does the source list for pertussis toxin [PTX]?
effect of PTX pretreatment on PDGF-induced fibroblast chemotaxis ([1]; PTX-pretreatment of fibroblasts, FIG. 1b, 1i): not inhibited; effect of PTX pretreatment on BAL-induced fibroblast chemotaxis ([4]; PTX-pretreatment of fibroblasts, D5 BAL, FIG. 1b): inhibited chemotaxis; also recorded: completely inhibited; effect of PTX pretreatment on LPA-induced fibroblast chemotaxis ([6]; PTX-pretreatment, LPA 10^−9-10^−7 M, FIG. 1i): inhibited chemotaxis; also recorded: reduced
